# Data as given in ChEMBL document CHEMBL1201862, “PubChem BioAssay data set” (2004).
#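 Test compounds were applied to cells in 96-well plates for 48 hours at 5 doses. Here, GI50 denotes the concentration required for 50% inhibition of growth.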 Active and inactive are the calls of the source. Rule as the data show it: active = GI50 up to about 1.1 µM and inactive = higher.
# How the values were obtained:
# Experiment in all cases: DTP human tumour cell line panel, 48 h
# [1] = system: EKVX
# [2] = system: ACHN
# [3] = system: SF-295
# [4] = system: IGROV-1
# [5] = system: LXFL 529
# [6] = system: DMS-114
# [7] = system: SNB-75
# [8] = system: SK-MEL-5
# [9] = system: K562
# [10] = system: NCI-H226
# [11] = system: HL-60
# [12] = system: RXF 631
# [13] = system: CAKI-1
# [14] = system: DLD-1
# [15] = system: RPMI-8226
# [16] = system: U-251
# [17] = system: OVCAR-5
# [18] = system: HCT-116
# [19] = system: HOP-18
# [20] = system: OVCAR-3
# [21] = system: HOP-92
# [22] = system: UACC-62
# [23] = system: OVCAR-8
# [24] = system: XF498
# [25] = system: CCRF-CEM
# [26] = system: A498
# [27] = system: MOLT-4
# [28] = system: M19-MEL
# [29] = system: SK-MEL-28
# [30] = system: HCC 2998
# [31] = system: UO-31
# [32] = system: SK-MEL-2
# [33] = system: TK-10
# [34] = system: 786-0
# [35] = system: NCI-H460
# [36] = system: SF-268
# [37] = system: NCI-H522
# [38] = system: Malme-3M
# [39] = system: UACC-257
# [40] = system: OVCAR-4
# [41] = system: HOP-62
# [42] = system: M14
# [43] = system: LOX IMVI
# [44] = system: A549
# [45] = system: HT-29
# [46] = system: SNB-78
# [47] = system: SK-OV-3
# [48] = system: DMS-273
# [49] = system: SR
# [50] = system: COLO 205
# [51] = system: NCI-H23
# [52] = system: HCT-15
# [53] = system: RXF 393
# [54] = system: KM12
# [55] = system: SN12C
# [56] = system: KM-20L2
# [57] = system: SNB-19
# [58] = system: SF-539
# [59] = system: MDA-MB-435
# [60] = system: MDA-N
# [61] = system: MDA-MB-231
# [62] = system: BT-549
# [63] = system: SW-620
# [64] = system: PC-3
# [65] = system: MCF7
# [66] = system: Hs-578T
# [67] = system: T47D
# [68] = system: NCI/ADR-RES
# [69] = system: DU-145
structure (smiles),measurement,setting,value
CCOC(=O)CCC1(C(=O)OCC)CCCC1=O (configuration not stated),GI50,[1],> 100000 nM (inactive)
same,GI50,[2],> 100000 nM (inactive)
same,GI50,[3],> 100000 nM (inactive)
same,GI50,[4],> 100000 nM (inactive)
same,GI50,[5],> 100000 nM (inactive)
same,GI50,[6],> 100000 nM (inactive)
same,GI50,[7],> 100000 nM (inactive)
same,GI50,[8],> 100000 nM (inactive)
same,GI50,[9],> 100000 nM (inactive)
same,GI50,[10],> 100000 nM (inactive)
same,GI50,[11],> 100000 nM (inactive)
same,GI50,[12],> 100000 nM (inactive)
same,GI50,[13],> 100000 nM (inactive)
same,GI50,[14],> 100000 nM (inactive)
same,GI50,[15],34400 nM (inactive)
same,GI50,[16],> 100000 nM (inactive)
same,GI50,[17],> 100000 nM (inactive)
same,GI50,[18],68400 nM (inactive)
same,GI50,[19],> 100000 nM (inactive)
same,GI50,[20],> 100000 nM (inactive)
same,GI50,[21],> 100000 nM (inactive)
same,GI50,[22],> 100000 nM (inactive)
same,GI50,[23],> 100000 nM (inactive)
same,GI50,[24],> 100000 nM (inactive)
same,GI50,[25],> 100000 nM (inactive)
same,GI50,[26],> 100000 nM (inactive)
same,GI50,[27],> 100000 nM (inactive)
same,GI50,[28],> 100000 nM (inactive)
same,GI50,[29],> 100000 nM (inactive)
same,GI50,[30],> 100000 nM (inactive)
same,GI50,[31],> 100000 nM (inactive)
same,GI50,[32],> 100000 nM (inactive)
same,GI50,[33],> 100000 nM (inactive)
same,GI50,[34],> 100000 nM (inactive)
same,GI50,[35],> 100000 nM (inactive)
same,GI50,[36],> 100000 nM (inactive)
same,GI50,[37],> 100000 nM (inactive)
same,GI50,[38],> 100000 nM (inactive)
same,GI50,[39],> 100000 nM (inactive)
same,GI50,[40],> 100000 nM (inactive)
same,GI50,[41],> 100000 nM (inactive)
same,GI50,[42],> 100000 nM (inactive)
same,GI50,[43],47600 nM (inactive)
same,GI50,[44],> 100000 nM (inactive)
same,GI50,[45],> 100000 nM (inactive)
same,GI50,[46],> 100000 nM (inactive)
same,GI50,[47],> 100000 nM (inactive)
same,GI50,[48],43200 nM (inactive)
same,GI50,[49],25400 nM (inactive)
same,GI50,[50],> 100000 nM (inactive)
same,GI50,[51],> 100000 nM (inactive)
same,GI50,[52],78300 nM
same,GI50,[53],> 100000 nM (inactive)
same,GI50,[54],> 100000 nM (inactive)
same,GI50,[55],> 100000 nM (inactive)
same,GI50,[56],> 100000 nM (inactive)
same,GI50,[57],> 100000 nM (inactive)
same,GI50,[58],> 100000 nM (inactive)
CCC(C)SC1SCC2C(=O)N(C)C3(CC3C)C(=O)OCC(NC(=O)c3nc4ccccc4cc3O)C(=O)NC(C)C(=O)N(C)C1C(=O)N(C)C1(CC1C)C(=O)OCC(NC(=O)c1nc3ccccc3cc1O)C(=O)NC(C)C(=O)N2C (configuration not stated),GI50,[1],0.38 nM (active)
same,GI50,[59],0.0497 nM (active)
same,GI50,[3],0.0991 nM (active)
same,GI50,[4],0.137 nM (active)
same,GI50,[5],0.031 nM (active)
same,GI50,[6],0.107 nM (active)
same,GI50,[7],0.0293 nM (active)
same,GI50,[9],0.0277 nM (active)
same,GI50,[10],0.0499 nM (active)
same,GI50,[60],0.0471 nM (active)
same,GI50,[11],0.0929 nM (active)
same,GI50,[12],0.195 nM (active)
same,GI50,[13],10 nM (active)
same,GI50,[14],0.2 nM (active)
same,GI50,[61],0.0578 nM (active)
same,GI50,[62],0.0435 nM (active)
same,GI50,[15],0.0415 nM (active)
same,GI50,[16],0.0318 nM (active)
same,GI50,[17],0.18 nM (active)
same,GI50,[19],0.232 nM (active)
same,GI50,[21],0.0587 nM (active)
same,GI50,[22],0.0155 nM (active)
same,GI50,[23],0.091 nM (active)
same,GI50,[24],0.0507 nM (active)
same,GI50,[25],0.0873 nM (active)
same,GI50,[26],0.102 nM (active)
same,GI50,[27],0.128 nM (active)
same,GI50,[28],0.033 nM (active)
same,GI50,[63],0.0478 nM (active)
same,GI50,[64],0.116 nM (active)
same,GI50,[30],0.103 nM (active)
same,GI50,[31],2.75 nM (active)
same,GI50,[32],0.0437 nM (active)
same,GI50,[34],0.034 nM (active)
same,GI50,[65],0.012 nM (active)
same,GI50,[66],0.0524 nM (active)
same,GI50,[35],0.0482 nM (active)
same,GI50,[67],0.219 nM (active)
same,GI50,[36],0.0481 nM (active)
same,GI50,[38],0.0412 nM (active)
same,GI50,[39],0.053 nM (active)
same,GI50,[41],0.0564 nM (active)
same,GI50,[42],0.116 nM (active)
same,GI50,[43],0.026 nM (active)
same,GI50,[44],0.15 nM (active)
same,GI50,[46],10 nM (active)
same,GI50,[47],0.144 nM (active)
same,GI50,[48],0.023 nM (active)
same,GI50,[68],33.1 nM (active)
same,GI50,[49],0.0279 nM (active)
same,GI50,[50],0.0501 nM (active)
same,GI50,[51],0.0325 nM (active)
same,GI50,[52],2.04 nM
same,GI50,[53],0.0476 nM (active)
same,GI50,[55],0.0499 nM (active)
same,GI50,[56],0.137 nM (active)
same,GI50,[69],0.188 nM (active)
same,GI50,[57],0.0479 nM (active)
same,GI50,[58],0.0479 nM (active)
